The values below are quoted from earlier work in US7838696B2, “Hydroconversion process employing multi-metallic catalysts and method for making thereof” (Chevron U. S. A. Inc., priority 2007, dated 2010).

In general, LD50 refers to the dose expected to kill half of the subjects tested.

The data set has as its system rats. The settings on record: rat, in vivo, po.

`O=CC(=O)O` [glyoxylic, glyoxylic acid]: the LD50 is 3000 mg/kg.
